Earlier results, collected in patent US11235023B2, “Beta-hairpin peptidomimetic with elastase inhibitory activity and aerosol dosage forms thereof” (POLYPHOR AG, priority 2016, dated 2022).

Key:
[1] = molecular target: T1, neutrophil elastase (Mus musculus, UniProt Q3UP87); conditions: mouse model of neutrophil allergen challenge; cited from earlier work
T1 sequence (Q3UP87 27-265): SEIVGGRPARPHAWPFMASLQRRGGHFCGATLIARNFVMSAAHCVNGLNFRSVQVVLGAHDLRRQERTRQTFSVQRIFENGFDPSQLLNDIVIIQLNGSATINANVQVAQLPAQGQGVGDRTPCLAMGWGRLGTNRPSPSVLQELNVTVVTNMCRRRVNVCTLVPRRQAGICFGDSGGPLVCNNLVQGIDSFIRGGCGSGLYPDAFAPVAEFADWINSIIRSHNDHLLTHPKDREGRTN

[2] = tested on: elastase; conditions: nasal instillation, CD-1 mice; cited from earlier work

Compound	Effect on airway hyperresponsiveness and inflammation [1]	Protection against elastase-mediated injury [2]
CC(C)(C)C(=O)Oc1ccc(S(=O)(=O)Nc2ccccc2C(=O)NCC(=O)O)cc1 [sivelelstat]	attenuates airway hyperresponsiveness and inflammation	–
rhalpha1PI: recombinant form of the elastase inhibitor alpha-1-proteinase inhibitor (alpha1PI)	–	highly protective
